“And” between values parts separate entries of the source, which are not always exact repeats. Identical values can stand only once.
Legend:
E. coli = test: Biotests 1: stamping test of treated, leached wood on agar; assay type: cell-based, Escherichia coli (ATCC 11229); conditions: wood batch 1 exposed to leaching; 18h contact; mean of grades 0-4 ±SE, n = 3; Mediator = ABTS (10 µM)
Protocol: (§1) Wood specimens (batch 1: 10 x 10 x 5 mm, length x width x height used in the biotests 1 and batch 2: 20 x 15 x 10 mm used in the biotests 2), free of defects, were extracted longitudinally from boards of Norway spruce trees grown in Switzerland, in order to minimize the influence of natural variability. All specimens were conditioned at 23C°(±1°C) and 50% (±5%) relative humidity (RH) until they reached an equilibrium moisture content of approximately 8-10%. Prior to the wood treatment the specimens were sterilized by autoclaving for 20min at 121°C(±1°C). […]
(§2) The evaluation of the antimicrobial activity against the bacteria E. coli and S. aureus and the yeast S. cerevisiae of the iodinated and polymerised wood was performed in biotests 1. […] Growth on agar plates was visually determined after incubation for 20-28h at the optimal temperature, giving the following growth values: 0 = no growth; 1 = weak growth; 2 = intermediate growth; 3 = strong growth and 4 = stamping area completely overgrown.

S. aureus = test: as above; assay type: cell-based, Staphylococcus aureus (ATCC 6583); conditions: wood batch 1 exposed to leaching; 18h contact; mean of grades 0-4 ±SE, n = 3; Mediator = ABTS (10 µM)
Protocol: as §1, §2

S. cerevisiae = test: as above; assay type: cell-based, Saccharomyces cerevisiae A.C. van Wijk (DSM 70449); conditions: wood batch 1 exposed to leaching; 18h contact; mean of grades 0-4 ±SE, n = 3; Mediator = ABTS (10 µM)
Protocol: as §1, §2

[1] = tested on: A. pullulans, C. picea, C. herbarum and D. pinicola; test: Biotests 2: blue stain test of treated wood (EN 152-2, modified); assay type: cell-based; conditions: 6 weeks of incubation, mean of stain categories 0-5 ±SE, n = 6, Mediator = ACS (50 µM); for Blue stain discoloration, Leached: wood batch 2, leached (EN 84); for Blue stain discoloration, Non-leached: wood batch 2, non-leached
Protocol: (§3) Wood specimens (batch 1: 10 x 10 x 5 mm, length x width x height used in the biotests 1 and batch 2: 20 x 15 x 10 mm used in the biotests 2), free of defects, were extracted longitudinally from boards of Norway spruce trees grown in Switzerland, in order to minimize the influence of natural variability. All specimens were conditioned at 23C°(±1°C) and 50% (±5%) relative humidity (RH) until they reached an equilibrium moisture content of approximately 8-10%. Prior to the wood treatment the specimens were sterilized by autoclaving for 20min at 121°C(±1°C).
The enzymatic wood iodination and polymerisation were carried out by dipping three wood specimens of batch 1 in 30ml or 12 wood specimens of batch 2 in 200ml reaction solution (pH 4-6) containing one of the phenolic compounds (4mM), or potassium iodide (1 or 50mM) in the presence of laccase ([…]) for 18h at room temperature. Furthermore, to test the suitability of HBA (5mM) as mediator some additional experiments were performed. The chemical preservative VP 7/ 260a containing IPBC and propiconazole as active agents was used as a benchmark with a final concentration of 5% (v/v). The wood specimens were treated and used in the biological tests, with the following modifications: • Control = Wood treated with buffer • L = Wood treated with laccase alone • L-M = Wood treated with laccase and mediator • Iso = Wood treated with isoeugenol • Iso-L = Wood treated with isoeugenol and laccase • Iso-L-M = Wood treated with isoeugenol, laccase and mediator • Thy = Wood treated with thymol • Thy-L = Wood treated with thymol and laccase • Thy-L-M = Wood treated with thymol and laccase and mediator • Ix = Wood treated with 1 or 50mM iodide (x = concentration of iodide) • Ix-L = Wood treated with 1 or 50mM iodide and laccase • Ix-L-M = Wood treated with 1 or 50mM iodide, laccase and mediator • VP7 = Wood treated with VP 7/ 260a (IPBC and propiconazole)
After the reaction all wood specimens of batch 1 had undergone a leaching procedure comprising five cycles of incubation in ddH2O (liquid volume min. 10 times the specimen volume, 100rpm, room temperature, 24h) and water exchange. Half of the wood specimens of batch 2 were exposed to leaching for two weeks including nine steps of water changing according to EN 84 (29), the other half was used without leaching in biotests.
The resistance of the treated wood against blue stain and wood decay fungi was determined in biotests 2 according to the European standards EN 152-2 (30) and EN 113 (31) with slight modifications. The EN 152 is a classical test for blue staining, originally intended to determine the effectiveness of a preservative treatment against blue stain in service. The treated wood samples were dipped into a spore suspension of A. pullulans, C. picea, C. herbarum and D. pinicola (cfu: > 10^5) and placed horizontally in a Kolle flask containing vermiculite (18g) which was inoculated additionally with 40ml of the spore suspension. The incubated specimens were stored in an incubation room at 22°C and 70% RH (6 weeks). After incubation the surface was evaluated by classifying the percentage of blue-stain discolouration from 0 to 5 according to Thwaites et al. (32) (Table 1). Table 1: Determination of the blue stain discoloration

O. placenta [2] = test: Biotests 2: mini-wood block decay test (comparable with EN 113), mass loss; assay type: cell-based, Oligoporus placenta; conditions: wood batch 2, non-leached and leached, 12 weeks incubation; numbers only in Figure 2
Protocol: as §3
(§4) The enzymatic wood iodination and polymerisation were carried out by dipping three wood specimens of batch 1 in 30ml or 12 wood specimens of batch 2 in 200ml reaction solution (pH 4-6) containing one of the phenolic compounds (4mM), or potassium iodide (1 or 50mM) in the presence of laccase (10U ml^-1) and either 10µM ABTS for batch 1 or 100µM ACS for batch 2 under shaking (100rpm) for 18h at room temperature. […]
(§5) The treated wood was aseptically added to fully colonised Petri dishes (135mm diameter, 2% malt extract agar (MEA)) by O. placenta and T. versicolor respectively and incubated at 22C° and 70% RH. The ability of the wood-decay fungi to degrade the wood was determined gravimetrically after incubation periods of 6 and 12 weeks and expressed as mass loss (%) according to EN 113 (31): Mass loss(%) = (m0 −m1)/(m0)⋅100 [formula] […]

T. versicolor [3] = test: as above; assay type: cell-based, Trametes versicolor; conditions: wood batch 2, non-leached and leached, 12 weeks incubation; numbers only in Figure 2
Protocol: as §3, §4, §5

A. alternata = test: Growth inhibition on supplemented malt extract agar plates (Example 1); assay type: cell-based; conditions: 2% MEA; phenolic derivatives 4mM, VP 7/ 260a 5% (v/v); without wood; ±SE, n = 3
D. pinicola = test: as above; assay type: cell-based, Discula pinicola; conditions: 2% MEA; phenolic derivatives 4mM, VP 7/ 260a 5% (v/v); without wood; ±SE, n = 3
Protocol: (§6) In addition to the mentioned biotests 2 the antimicrobial activity of the reaction derivatives without wood was evaluated on agar plates (5), excluding the laccase-catalysed iodine solution. It was assumed that the iodine molecules would react with starch from malt to form polyiodide chains, which would prevent the antimicrobial effect (33). The laccase catalysis of the phenols was performed under shaking for 18h at room temperature as described above and the phenolic derivatives were added to 2% MEA after autoclaving to a final concentration of 4mM. The fungicide VP 7/ 260a were added to a concentration of 5% (v/v). The supplemented Petri dishes were inoculated in the centre with a mycelium agar disc (5mm diameter) taken from the sub-margin of 14 day old cultures of the ascomycetes A. pullulans and D. pinicola and the basidiomycetes O. placenta and T. versicolor. The fungal growth was estimated by measuring the colony diameter and the growth inhibition was expressed as % of reference grown on non-supplemented malt agar.

O. placenta [4] = test: as above; assay type: cell-based, Oligoporus placenta; conditions: 2% MEA; phenolic derivatives 4mM, VP 7/ 260a 5% (v/v); without wood; ±SE, n = 3
Protocol: as §6

T. versicolor [5] = test: as above; assay type: cell-based, Trametes versicolor; conditions: 2% MEA; phenolic derivatives 4mM, VP 7/ 260a 5% (v/v); without wood; ±SE, n = 3
Protocol: as §6

SMILES | Growth values after stamping, E. coli (E. coli) | Growth values after stamping, S. aureus (S. aureus) | Growth values after stamping, S. cerevisiae (S. cerevisiae) | Blue stain discoloration, Leached [1] | Blue stain discoloration, Non-leached [1] | mass loss of wood caused by O. placenta (result in words) (O. placenta [2]) | mass loss of wood caused by T. versicolor (result in words) (T. versicolor [3]) | Growth inhibition [%] on agar plate compared to control, A. alternata (A. alternata) [%] | Growth inhibition [%] on agar plate compared to control, D. pinicola (D. pinicola) [%] | Growth inhibition [%] on agar plate compared to control, O. placenta (O. placenta [4]) [%] | Growth inhibition [%] on agar plate compared to control, T. versicolor (T. versicolor [5]) [%]
[I-].[K+] [I50, potassium iodide] | 4.0 ±0.0 | 3.0 ±0.6 | 2.7 ±0.3 | 3.3 ±0.3 | 0.8 ±0.4 |  |  |  |  |  | 
CC=Cc1ccc(O)c(OC)c1 [Iso, isoeugenol] | 4.0 and 4.0 ±0.0 |  |  | 3.4 and 3.4 ±0.5 |  | minor effect | minor effect | 100 ±0.0 | 100 ±0.0 | 100 ±0.0 | 100 ±0.0
Cc1ccc(C(C)C)c(O)c1 [Thy, thymol] |  |  |  | 3.5 and 3.5 ±0.3 | 2.5 and 2.5 ±0.6 | minor effect | minor effect | 100 ±0.0 | 100 ±0.0 | 100 ±0.0 | 100 ±0.0
